For the experiment the following is noted: biotinylated peptide binding to gray human hair bundle; streptavidin-HRP/TMB, A450; calculated from Scatchard plots. The procedure:
Then, the streptavidin-horseradish peroxidase (HRP) conjugate (Pierce Chemical Co., Rockford, Ill.) was added to each well (1.0 μg per well), and incubated for 1 h at room temperature, followed by 6 times of washes with TBST. […] The results were plotted as A450 versus the concentration of peptide using GraphPad Prism 4.0 (GraphPad Software, Inc., San Diego, Calif.).

The values below come from patent US20100158846A1, “HAIR-BINDING PEPTIDES” (E. I. DU PONT DE NEMOURS AND COMPANY, priority 2008, published 2010).

“PLWRRITKRKLVRPVATLMWYWFTSKR-K(biotin)-NH2 [CXH-G2]”: the MB50 was 72 nM.
